# From US11312713B2, “Imidazo[4,5-C]quinoline derivatives as LRRK2 inhibitors” (Pfizer Inc., priority 2017, dated 2022)
# Legend:
# [1] = Intrinsic clearance (CLint) in cynomolgus monkey liver microsomes; format: in vitro ADME; details: for microsomal CLint at 1 μM / half-life at 1 μM: monkey, liver microsomes, pH 7.4, monkey liver microsomes; for half-life at 1 μM: read-out: T½; for Rate of metabolite / intrinsic clearance in comparison to undeuterated form (95A) / rate of metabolite formation in comparison to undeuterated form (95A): monkey liver microsomes
# Method: Intrinsic Clearance (CLint) in Cynomolgus Monkey Liver Microsomes
# (§1) Incubations (in duplicate) contained either 95A or 96, or both 95A and 96 at final concentrations of 1 μM, pooled cynomolgus monkey liver microsomes (Xenotech, LLC, Lenexa, Kans., 0.25 μM CYP protein equivalent to 0.21 mg/mL protein concentration), NADPH (1.3 mM), magnesium chloride (3.3 mM) and potassium phosphate buffer (100 mM, pH 7.4). The final reaction volume (500 μL) contained 0.003% DMSO, 0.5% acetonitrile. The incubations were conducted at 37° C. and aliquots (50 μL) were removed at 0, 5, 10, 15, 20, 30, 45 and 60 minutes and quenched by addition to cold acetonitrile containing mass spectrometry (MS) internal standard (200 μL). Quenched incubations were vortexed for 1 minute followed by centrifugation at 3000 rpm for 5 minutes at room temperature (Allegra X-12R, Beckman Coulter, Fullerton, Calif.). The supernatant (150 μL) was then removed and added to a 96-deep well injection plate containing 150 μL of water with 0.1% formic acid (v/v). The plates were capped and vortexed for 1 minute and subsequently analyzed using LC-MS/MS as described below. Control incubations were prepared similar without adding the NADPH cofactor to monitor for any non-CYP/FMO metabolism. Discrete standard curves (0.5-2000 nM) were prepared, processed, and analyzed as described above.
# (§2) Disappearance of substrates 95A and 96 and formation of metabolites 95 or 96B were determined using an LC-MS/MS system which is comprised of an AB Sciex 6500 triple quadrupole mass spectrometer equipped with an electrospray source (AB Sciex, Framingham, Mass.) and Agilent Technologies Infinity 1290 (Santa Clara, Calif.). A binary gradient was employed with a flow rate of 0.500 mL/min, using 0.1% formic acid in water as the aqueous mobile phase (solvent A) and 0.1% formic acid in acetonitrile (solvent B) as the organic phase. The LC gradient profile begins at 5% solvent B which was ramped to 98% B over 2 minutes and then held for 0.20 minutes and returned to initial conditions (5% B) over 0.5 minutes, for a total run time of 3.00 minutes. The analytical column used was a Phenomenex Kinetex 2.6 μm, 2.1×50 mm (Phenomenex, Torrance, Calif.), with an injection volume of 10 μL. The mass spectrometer was run under positive mode with the source temperature set to 500° C., ionization voltage set to 4.5 kV. The following MS/MS transitions were utilized: for substrate 95A (408→310), substrate 96 (411→313), metabolite 95 (424→326), and metabolite 96B (426→328). Analytes were quantified using Analyst software, version 1.6.2 or earlier (AB Sciex, Framingham, Mass.).
# [2] = Intrinsic clearance (CLint) in human liver microsomes; format: in vitro ADME; details: for microsomal CLint at 1 μM / half-life at 1 μM: human, liver microsomes, pH 7.4, human liver microsomes; for half-life at 1 μM: read-out: T½; for Rate of metabolite / intrinsic clearance in comparison to undeuterated form (95A) / rate of metabolite formation in comparison to undeuterated form (95A): human liver microsomes
# Method: Intrinsic Clearance (CLint) in Human Liver Microsomes
# as §1, with “The” for “Incubations (in duplicate) contained either 95A or 96, or both 95A and 96 at final concentrations of 1 μM, pooled cynomolgus monkey liver microsomes (Xenotech, LLC, Lenexa, Kans., 0.25 μM CYP protein equivalent to 0.21 mg/mL protein concentration), NADPH (1.3 mM), magnesium chloride (3.3 mM) and potassium phosphate buffer (100 mM, pH 7.4). The”, “vortex” for “vortexed”, “(v/v), the” for “(v/v). The”
# as §2
# [3] = Human liver microsomes enzyme kinetics (metabolite formation); format: in vitro ADME
# Method: Human Liver Microsomes Enzyme Kinetics
# Incubations (in triplicate) contained 95A or 96 (1-1000 μM, final concentrations), pooled human liver microsomes (BD Biosciences, Bedford, Mass., 0.25 protein concentration, NADPH (1.3 mM), magnesium chrolide (5 mM) and potassium phosphate buffer (100 mM, pH 7.4). The final reaction volume (100 μL) contained 1 acetonitrile. The incubations were conducted at 37° C. At time points of 15 minutes for 95A, or 30 min for 96, 50 μL of incubate was quenched by the addition of 200 μL of cold acetonitrile containing 0.1% formic acid (v/v) and mass spectrometry (MS) internal standard. Quenched samples were vortexed for 1 minute followed by centrifugation at 3000 rpm for 5 minutes at room temperature (Allegra X-12R, Beckman Coulter, Fullerton, Calif.). The supernatant (150 μL) was placed into a clean injection sample block and dried down under nitrogen gas, then reconstituted with 150 μL of water containing 0.1% formic acid (v/v). The plates were capped and vortexed for 1 minute and subsequently analyzed using LC-MS/MS as described below. Formation of metabolites 95 (from substrate 95A) and 96B (from substrate 96) was quantitated using a standard curve (0.5-5000 nM) generated using a synthetic standard of substrate 95. Standard curve samples were prepared, processed, and analyzed as described above.
# as §2
# mutant G2019S LRRK2 = mutant G2019S LRRK2 (Homo sapiens (Human), UniProt Q5S007, G2019S); test: LRRK2 kinase assay (LanthaScreen), G2019S mutant; format: biochemical; details: G2019S mutant LRRK2; LanthaScreen, LRRKtide substrate; read-out: LRRK2, G2019S IC50
# mutant G2019S LRRK2, sequence (Q5S007 whole entry G2019S, the tested form may be a part): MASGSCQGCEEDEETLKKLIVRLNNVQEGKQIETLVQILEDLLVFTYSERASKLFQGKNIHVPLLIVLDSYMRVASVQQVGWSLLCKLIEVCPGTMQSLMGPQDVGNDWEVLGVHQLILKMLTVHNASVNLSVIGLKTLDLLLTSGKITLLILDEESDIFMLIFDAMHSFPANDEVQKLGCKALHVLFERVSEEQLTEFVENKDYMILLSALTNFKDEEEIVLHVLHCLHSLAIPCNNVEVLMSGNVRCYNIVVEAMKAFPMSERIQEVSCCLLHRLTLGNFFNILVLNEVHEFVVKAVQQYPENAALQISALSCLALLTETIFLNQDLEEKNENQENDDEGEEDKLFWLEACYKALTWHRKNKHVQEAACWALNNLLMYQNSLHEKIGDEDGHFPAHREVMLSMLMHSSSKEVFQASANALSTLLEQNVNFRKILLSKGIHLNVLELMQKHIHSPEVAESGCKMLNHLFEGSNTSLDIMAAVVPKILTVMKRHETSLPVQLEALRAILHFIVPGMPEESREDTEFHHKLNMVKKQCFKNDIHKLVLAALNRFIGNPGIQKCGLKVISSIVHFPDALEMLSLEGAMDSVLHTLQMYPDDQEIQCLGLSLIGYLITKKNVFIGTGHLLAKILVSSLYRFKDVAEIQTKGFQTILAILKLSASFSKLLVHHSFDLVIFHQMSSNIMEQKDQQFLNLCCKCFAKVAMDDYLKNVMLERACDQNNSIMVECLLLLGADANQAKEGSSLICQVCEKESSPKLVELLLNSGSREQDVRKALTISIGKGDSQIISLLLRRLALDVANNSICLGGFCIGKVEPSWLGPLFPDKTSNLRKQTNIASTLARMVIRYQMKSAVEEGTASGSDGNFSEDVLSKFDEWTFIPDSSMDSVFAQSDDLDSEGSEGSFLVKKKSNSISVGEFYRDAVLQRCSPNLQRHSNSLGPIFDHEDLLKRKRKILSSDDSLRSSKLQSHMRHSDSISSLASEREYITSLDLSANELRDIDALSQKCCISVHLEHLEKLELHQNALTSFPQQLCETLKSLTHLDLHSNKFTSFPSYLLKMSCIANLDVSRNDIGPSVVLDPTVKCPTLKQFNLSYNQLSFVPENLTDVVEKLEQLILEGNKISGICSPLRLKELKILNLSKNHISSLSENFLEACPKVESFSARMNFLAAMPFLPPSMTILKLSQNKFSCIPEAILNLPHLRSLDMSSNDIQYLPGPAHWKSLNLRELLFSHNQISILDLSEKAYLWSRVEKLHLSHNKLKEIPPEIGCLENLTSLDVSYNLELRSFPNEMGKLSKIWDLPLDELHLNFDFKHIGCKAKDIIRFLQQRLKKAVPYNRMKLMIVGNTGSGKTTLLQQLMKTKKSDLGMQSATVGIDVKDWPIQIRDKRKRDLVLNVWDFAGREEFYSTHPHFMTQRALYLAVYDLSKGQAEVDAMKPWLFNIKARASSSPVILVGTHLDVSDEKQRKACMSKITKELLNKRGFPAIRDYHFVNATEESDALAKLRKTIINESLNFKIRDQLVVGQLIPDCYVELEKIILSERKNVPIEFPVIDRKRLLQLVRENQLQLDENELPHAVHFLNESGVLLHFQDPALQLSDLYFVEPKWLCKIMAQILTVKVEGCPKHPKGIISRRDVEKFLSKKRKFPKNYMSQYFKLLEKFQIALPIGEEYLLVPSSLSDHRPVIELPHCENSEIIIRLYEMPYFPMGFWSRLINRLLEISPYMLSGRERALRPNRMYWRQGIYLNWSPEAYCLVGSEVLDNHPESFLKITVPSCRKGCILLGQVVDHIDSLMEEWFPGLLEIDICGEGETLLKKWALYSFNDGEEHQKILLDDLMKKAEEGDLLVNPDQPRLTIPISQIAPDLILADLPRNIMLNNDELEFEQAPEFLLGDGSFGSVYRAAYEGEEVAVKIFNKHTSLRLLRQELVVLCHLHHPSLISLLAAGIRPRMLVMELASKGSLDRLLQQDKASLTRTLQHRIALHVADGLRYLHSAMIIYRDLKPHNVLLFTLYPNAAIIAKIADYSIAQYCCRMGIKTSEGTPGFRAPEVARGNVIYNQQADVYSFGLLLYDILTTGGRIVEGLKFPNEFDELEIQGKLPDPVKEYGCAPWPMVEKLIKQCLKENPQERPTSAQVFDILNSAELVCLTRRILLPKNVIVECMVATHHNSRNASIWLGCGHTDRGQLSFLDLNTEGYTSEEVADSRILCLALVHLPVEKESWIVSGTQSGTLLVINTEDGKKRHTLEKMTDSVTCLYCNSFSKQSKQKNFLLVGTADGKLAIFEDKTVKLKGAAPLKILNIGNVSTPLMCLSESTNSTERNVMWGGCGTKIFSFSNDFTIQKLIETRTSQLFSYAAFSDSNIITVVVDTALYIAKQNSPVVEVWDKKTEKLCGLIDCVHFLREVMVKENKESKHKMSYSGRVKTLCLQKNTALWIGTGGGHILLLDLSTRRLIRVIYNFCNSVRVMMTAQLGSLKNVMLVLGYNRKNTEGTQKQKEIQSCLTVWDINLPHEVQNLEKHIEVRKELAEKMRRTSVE
# How it was run: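 GST-tagged truncated enzyme (2 μg/mL) phosphorylates 100 nM fluorescein-LRRKtide with 1 mM ATP in HEPES pH 7.5, 3 mM MgCl2, DTT, Brij35; 30 min, room temperature, compound dose response top 3 μM. Stopped with EDTA; phospho-ERM detected by terbium anti-phospho-ERM TR-FRET; identical conditions for both enzymes.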
# [4] = combined substrates 95A and 96 - competition
# [5] = formation of metabolite 95 (from 95A) or 96B (from 96), human liver microsomes
# [6] = combined substrates (competition)
# [7] = individual substrates, metabolite 95 from 95A, 96B from 96
compound,measurement,setting,value
"Cc1cnc(Cc2nc3cnc4ccc(Cl)cc4c3n2[C@@H]2CCO[C@H](C)C2)cn1 [Example 95A, 8-chloro-2-[(5-methylpyrazin-2-yl)methyl]-1-[(2R,4R)-2-methyltetrahydro-2H-pyran-4-yl]-1H-imidazo[4,5-c]quinoline]",microsomal CLint at 1 μM,[1]; [4],193 µL/min/mg
same,half-life at 1 μM,[1]; [4],17.2 min
same,microsomal CLint at 1 μM,"[1]; individual substrates, 1 μM",215 µL/min/mg
same,half-life at 1 μM,"[1]; individual substrates, 1 μM",15.3 min
same,microsomal CLint at 1 μM,[2]; [4],14 µL/min/mg
same,half-life at 1 μM,[2]; [4],65.9 min
same,microsomal CLint at 1 μM,"[2]; individual substrates, 1 μM",16 µL/min/mg
same,half-life at 1 μM,"[2]; individual substrates, 1 μM",54.4 min
same,Km,[3]; [5],15.2 µM
same,Vmax,[3]; [5],0.229 nmol/min/mg
same,microsomal CLint,"[3]; pH 7.4, formation of metabolite 95 (from 95A) or 96B (from 96), human liver microsomes",15.1 µL/min/mg
same,IC50,mutant G2019S LRRK2,6.06 nM
"[2H]C([2H])([2H])c1cnc(Cc2nc3cnc4ccc(Cl)cc4c3n2[C@@H]2CCO[C@H](C)C2)cn1 [Example 96, 8-chloro-2-{[5-(^2H3)methylpyrazin-2-yl]methyl}-1-[(2R,4R)-2-methyltetrahydro-2H-pyran-4-yl]-1H-imidazo[4,5-c]quinoline]",Rate of metabolite,[1]; [4],25.19 nmol/min/mg
same,intrinsic clearance in comparison to undeuterated form (95A),[1]; [6],decreased intrinsic clearance
same,rate of metabolite formation in comparison to undeuterated form (95A),[1]; [6],lower rate of metabolite formation
same,intrinsic clearance in comparison to undeuterated form (95A),[1]; individual substrates,decreased intrinsic clearance
same,rate of metabolite formation in comparison to undeuterated form (95A),[1]; individual substrates,lower rate of metabolite (96B) formation
same,Rate of metabolite,[1]; [7],22.83 nmol/min/mg
same,microsomal CLint at 1 μM,[1]; [4],110 µL/min/mg
same,half-life at 1 μM,[1]; [4],29.9 min
same,microsomal CLint at 1 μM,"[1]; individual substrates, 1 μM",151 µL/min/mg
same,half-life at 1 μM,"[1]; individual substrates, 1 μM",21.9 min
same,Rate of metabolite,[2]; [4],1.65 nmol/min/mg
same,intrinsic clearance in comparison to undeuterated form (95A),[2]; [6],decreased intrinsic clearance
same,rate of metabolite formation in comparison to undeuterated form (95A),[2]; [6],lower rate of metabolite formation
same,intrinsic clearance in comparison to undeuterated form (95A),[2]; individual substrates,decreased intrinsic clearance
same,rate of metabolite formation in comparison to undeuterated form (95A),[2]; individual substrates,lower rate of metabolite (96B) formation
same,Rate of metabolite,[2]; [7],1.10 nmol/min/mg
same,microsomal CLint at 1 μM,[2]; [4],6.86 µL/min/mg
same,half-life at 1 μM,[2]; [4],127 min
same,microsomal CLint at 1 μM,"[2]; individual substrates, 1 μM",6.68 µL/min/mg
same,half-life at 1 μM,"[2]; individual substrates, 1 μM",90.4 min
same,intrinsic clearance in comparison to undeuterated form (95A),[3]; human liver microsomes enzyme kinetics,decreased intrinsic clearance
